Values quoted from earlier work, collected in patent publication US9943479B2, “Injectable liquid paracetamol formulation” (GENFARMA LABORATORIO S.L., priority 2006, dated 2018).
Converted amounts (≈) assume the structure as drawn. Where two headings read alike, the source gives them in different places.

solubility in aqueous medium (4° C.): ~8 mg/mL (≈ 52.9 mM)
solubility in aqueous medium (20° C.): ~12 mg/mL (≈ 79.4 mM)
Structure (SMILES): CC(=O)Nc1ccc(O)cc1 [paracetamol, n-acetyl-4-aminophenol]
